These results are taken from patent US4041048A, “3,2-Benzoxazepine derivatives” (Gruppo Lepetit S.p.A., priority 1971, dated 1977).

The test system of data set [1] is central nervous system. Briefly: Inhibition of secondary conditioned avoidance response in mice (anxiety-relieving effect). Format: in vivo. Conditions: Mus musculus, ip, read-out: ED50, Secondary conditioned avoidance response. On the procedure:
(§1) Decreasing the spontaneous activity in mice after intraperitoneal administration of an effective amount of the compounds was taken as a measure of the sedative effect, while impairment of motor coordination and righting reflex were related to hypnotic properties. The myorelaxing characteristics were evaluated by considering the body tone, while the anxiety-relieving effect was measured on the basis of the inhibition of the secondary conditioned avoidance response.

For data set [2], the system named is central nervous system. Kind of data set: Impairment of motor coordination and righting reflex in mice (hypnotic properties). It is filed as in vivo. To be noted: Mus musculus, ip, read-out: ED50, Impairment of motor coordination and righting reflex. On the procedure:
as §1

In data set [3] the test system is central nervous system. Briefly: Body tone in mice (myorelaxing characteristics). It is filed as in vivo. To be noted: Mus musculus, ip, read-out: ED50, Body tone. On the procedure: as §1
Data set [4] concerns central nervous system. Kind of data set: Decrease of spontaneous activity in mice (sedative effect). Conditions: Mus musculus, ip, read-out: ED50, Spontaneous activity. It is filed as in vivo. On the procedure:
as §1

Data set [5] is described as follows: Toxicity, LD50 in mice i.p. To be noted: mouse, in vivo, ip.
The subject of data set [6] is carrageenin-induced edema. Kind of data set: Carrageenin-induced edema test (anti-inflammatory activity). Format: in vivo. Conditions: 100 mg/kg p.o., rats. The source says:
|Carrageenin-induced edema test
Background: Carrageenan injected into the paw causes an acute inflammation.

A short description of data set [7]: LD50 to which the edema test dose is related. It is filed as in vivo. To be noted: rats.

In general, ED50 refers to the dose that gives a 50% effect, or the effect in half of the subjects. With `CC1NOCCc2ccccc21` (stereo not drawn) [Example 4, 1-Methyl-1,2,4,5-tetrahydro-3,2-benzoxazepine], the ED50 stood at 60 mg/kg with central nervous system [1] (i.p. in mice), 60 mg/kg in the data set with central nervous system [2] (i.p. in mice), 20 mg/kg in the data set on central nervous system [3] (i.p. in mice) and 100 mg/kg in the data set with central nervous system [4] (i.p. in mice).

As usually defined, the LD50 is the dose at which mortality reaches 50%. Consider `CC1c2ccccc2CCON1C(=O)N1CCOCC1` (stereo not drawn) [Example 24], for which, in data set [5], the LD50 is more than 500 mg/kg. In addition, in data set [6], the “% Decrease of the edema” value amounted to 32%. In data set [7], the “dose of 100 mg/kg per os as fraction of the LD50 value” is listed as “about one-tenth to about one-fifth”.

Compound `CNC(=O)N1OCCc2ccccc2C1C` (stereo not drawn) [Example 15, 1-Methyl-2-methylcarbamyl-1,2,4,5-tetrahydro-3,2-benzoxazepine] showed a median lethal dose (LD50) in data set [5] of more than 500 mg/kg. The “% Decrease of the edema” value in data set [6] is reported as 31.5%. Further, in data set [7], the “dose of 100 mg/kg per os as fraction of the LD50 value” was “about one-tenth to about one-fifth”.

`CC1c2ccccc2CCON1C(N)=O` (stereo not drawn) [Example 6, 2-Carbamyl-1-methyl-1,2,4,5-tetrahydro-3,2-benzoxazepine]: the ED50 with central nervous system [1] (i.p. in mice) was found to be 15 mg/kg; in the data set with central nervous system [2] (i.p. in mice), 60 mg/kg; with central nervous system [3] (i.p. in mice), 80 mg/kg; in the data set on central nervous system [4] (i.p. in mice) it was 60 mg/kg. Also, in data set [5], the LD50 was more than 500 mg/kg.

For the compound `NC(=O)OCCN1Cc2ccccc2CCO1` [Example 9, 2-(2-Carbamyloxyethyl)-1,2,4,5-tetrahydro-3,2-benzoxazepine], the 50% effective dose (ED50) in the data set with central nervous system [1] turned out to be 30 mg/kg; with central nervous system [2] it was 100 mg/kg; in the data set on central nervous system [3] it was 300 mg/kg; with central nervous system [4] it was 100 mg/kg. The compound also displayed a median lethal dose (LD50) in data set [5] of more than 500 mg/kg.

Turning to `CC1c2ccccc2CCON1C` (stereo not drawn) [Example 7, 1,2-Dimethyl-1,2,4,5-tetrahydro-3,2-benzoxazepine], the LD50 in data set [5] is more than 500 mg/kg. Also, the “% Decrease of the edema” value in data set [6] turned out to be 30%. Besides, the “dose of 100 mg/kg per os as fraction of the LD50 value” in data set [7] is reported as “about one-tenth to about one-fifth”.

Turning to `CC(C)=CC(=O)N1OCCc2ccccc2C1C` (stereo not drawn) [Example 12, 1-Methyl-2-(3-methyl-2-butenoyl)-1,2,4,5-tetrahydro-3,2-benzoxazepine], the LD50 in data set [5] was more than 500 mg/kg.

For `CCN(CC)C(=O)N1OCCc2ccccc2C1C` (stereo not drawn) [Example 11, 2-Diethylcarbamyl-1-methyl-1,2,4,5-tetrahydro-3,2-benzoxazepine], in data set [5], the LD50 was more than 500 mg/kg. Moreover, the “% Decrease of the edema” value in data set [6] is given as 31%. For the same compound, in data set [7], the “dose of 100 mg/kg per os as fraction of the LD50 value” is recorded as “about one-tenth to about one-fifth”.

In the case of `CC(=O)N1OCCc2ccccc2C1C` (stereo not drawn) [Example 18, 2-acetyl-1-methyl-1,2,4,5-tetrahydro-3,2-benzoxazepine], the 50% effective dose (ED50) with central nervous system [1] (i.p. in mice) was found to be 60 mg/kg; in the data set with central nervous system [2] (i.p. in mice), 60 mg/kg; in the data set on central nervous system [3] (i.p. in mice), 200 mg/kg; in the data set on central nervous system [4] (i.p. in mice), 100 mg/kg.

Compound `C=CCN1OCCc2ccccc2C1C` (stereo not drawn) [Example 17] gave an LD50 in data set [5] of more than 500 mg/kg.

In the case of `CN1Cc2ccccc2CCO1` [Example 16], the 50% effective dose (ED50) worked out at 40 mg/kg with central nervous system [1] (i.p. in mice), 120 mg/kg in the data set on central nervous system [2] (i.p. in mice), 10 mg/kg in the data set with central nervous system [3] (i.p. in mice) and 100 mg/kg in the data set on central nervous system [4] (i.p. in mice). The same compound returned an LD50 in data set [5] of more than 500 mg/kg. Further, the “% Decrease of the edema” value in data set [6] stood at 30.5%. In addition, the “dose of 100 mg/kg per os as fraction of the LD50 value” in data set [7] is “about one-tenth to about one-fifth”.
